For assay [1], the species on record is Oryctolagus cuniculus. The assay is described as follows: Inhibition of Protein phosphatase 1 at 0.1 mM.
Assay [2] is filed under the species Oryctolagus cuniculus. Kind of assay: Inhibition of Protein phosphatase 1 at 1 mM.
The species entered for assay [3] is Oryctolagus cuniculus. The assay is described as follows: Inhibition of Protein phosphatase 2A1 (PP2A1) at 0.1 mM.
The species entered for assay [4] is Oryctolagus cuniculus. Kind of assay: Inhibition of Protein phosphatase 2A1 (PP2A1) at 1 mM.
The species named for assay [5] is Bos taurus. Kind of assay: Inhibition of Protein phosphatase 2B (PP2B) at 0.1 mM.
For assay [6], the species on record is Bos taurus. Kind of assay: Inhibition of Protein phosphatase 2B (PP2B) at 1 mM.

As usually defined, the inhibition is the change of the read-out against control, counted positive when it falls. Lower therefore signals a weak effect. On to `CC12CCC(C)(O1)C(C(=O)O)C2C(=O)O` (centres undefined), for which the inhibition in the assay listed under Oryctolagus cuniculus [1] worked out at 0%; in the assay filed under Oryctolagus cuniculus [2], 1%; in the assay listed under Oryctolagus cuniculus [3] it was 0%; in the assay filed under Oryctolagus cuniculus [4], 2%; in the assay filed under Bos taurus [5], 17%; in the assay filed under Bos taurus [6] it was 18%.

As for `CC(=O)OCC1=CC2OC1C(C(=O)O)C2C(=O)O` (centres undefined), the inhibition in the assay filed under Oryctolagus cuniculus [1] turned out to be 50%; in the assay listed under Oryctolagus cuniculus [2] it was 80%; in the assay filed under Oryctolagus cuniculus [3], 40%; in the assay filed under Oryctolagus cuniculus [4] it was 90%; in the assay listed under Bos taurus [5], 20%; in the assay filed under Bos taurus [6] it was 89%.

As to `O=C1OC(=O)C2C3OC(CC3COC3CCCCC3)C12` (centres undefined), the inhibition in the assay filed under Oryctolagus cuniculus [1] was 70%; in the assay filed under Oryctolagus cuniculus [2], 90%; in the assay filed under Oryctolagus cuniculus [3], 75%; in the assay filed under Oryctolagus cuniculus [4] it was 100%; in the assay filed under Bos taurus [5], 40%; in the assay listed under Bos taurus [6], 100%.

Regarding `CC(=O)OCC12C=CC(O1)C(C(=O)O)C2C(=O)O` (centres undefined), the inhibition was 5% in the assay filed under Oryctolagus cuniculus [1]; 40% in the assay listed under Oryctolagus cuniculus [2]; 0% in the assay listed under Oryctolagus cuniculus [3]; 25% in the assay listed under Oryctolagus cuniculus [4]; 10% in the assay filed under Bos taurus [5]; 60% in the assay filed under Bos taurus [6].

In the case of `O=C(O)C1C2CCC3(COC(=O)C13)O2` (centres undefined), the inhibition in the assay listed under Oryctolagus cuniculus [1] amounted to 9%; in the assay filed under Oryctolagus cuniculus [2], 20%; in the assay filed under Oryctolagus cuniculus [3], 8%; in the assay filed under Oryctolagus cuniculus [4] it was 8%; in the assay listed under Bos taurus [5], 18%; in the assay filed under Bos taurus [6] it was 20%.

Regarding `CC(=O)OCC1CC2OC1C1C(=O)OC(=O)C21` (centres undefined), the inhibition in the assay filed under Oryctolagus cuniculus [1] was determined as 90%; in the assay filed under Oryctolagus cuniculus [2], 100%; in the assay listed under Oryctolagus cuniculus [3] it was 70%; in the assay listed under Oryctolagus cuniculus [4] it was 98%; in the assay filed under Bos taurus [5], 20%; in the assay listed under Bos taurus [6] it was 85%.

With `CC(=O)OCC12C=CC(O1)C1C(=O)OC(=O)C12` (centres undefined), the inhibition in the assay listed under Oryctolagus cuniculus [1] is 5%; in the assay listed under Oryctolagus cuniculus [2], 30%; in the assay listed under Oryctolagus cuniculus [3], 5%; in the assay filed under Oryctolagus cuniculus [4], 40%; in the assay filed under Bos taurus [5], 10%; in the assay filed under Bos taurus [6] it was 50%.

On to `O=C1OC(=O)C2C1C1C=CC2(CO)O1` (centres undefined), for which the inhibition came out at 8% in the assay listed under Oryctolagus cuniculus [1]; 18% in the assay listed under Oryctolagus cuniculus [2]; 5% in the assay filed under Oryctolagus cuniculus [3]; 12% in the assay filed under Oryctolagus cuniculus [4]; 10% in the assay filed under Bos taurus [5]; 50% in the assay listed under Bos taurus [6].

Take `O=C1OC(=O)C2C3C=CC(O3)C12` (centres undefined): the inhibition in the assay filed under Oryctolagus cuniculus [1] amounted to 95%; in the assay filed under Oryctolagus cuniculus [2], 98%; in the assay filed under Oryctolagus cuniculus [3] it was 95%; in the assay filed under Oryctolagus cuniculus [4], 95%; in the assay filed under Bos taurus [5], 40%; in the assay listed under Bos taurus [6] it was 99%.

On to `O=C1OC(=O)C2C3OC(C=C3COC3CCCCC3)C12` (centres undefined), for which the inhibition in the assay listed under Oryctolagus cuniculus [1] is 50%; in the assay filed under Oryctolagus cuniculus [2] it was 60%; in the assay listed under Oryctolagus cuniculus [3], 80%; in the assay filed under Oryctolagus cuniculus [4], 100%; in the assay listed under Bos taurus [5], 30%; in the assay listed under Bos taurus [6], 70%.

With `CC(=O)OCC12CCC(O1)C1C(=O)OC(=O)C12` (centres undefined), the inhibition is 20% in the assay filed under Oryctolagus cuniculus [1]; 70% in the assay filed under Oryctolagus cuniculus [2]; 5% in the assay listed under Oryctolagus cuniculus [3]; 50% in the assay filed under Oryctolagus cuniculus [4]; 30% in the assay filed under Bos taurus [5]; 45% in the assay listed under Bos taurus [6].

`O=C1OC(=O)C2C3CCC(O3)C12` (centres undefined): the inhibition in the assay listed under Oryctolagus cuniculus [1] is 95%; in the assay filed under Oryctolagus cuniculus [2], 100%; in the assay listed under Oryctolagus cuniculus [3], 94%; in the assay listed under Oryctolagus cuniculus [4], 100%; in the assay filed under Bos taurus [5], 35%; in the assay filed under Bos taurus [6] it was 98%.

Take `C[C@@]12C(=O)OC(=O)[C@]1(C)C1CCC2O1`: the inhibition was found to be 85% in the assay filed under Oryctolagus cuniculus [1]; 90% in the assay filed under Oryctolagus cuniculus [2]; 85% in the assay listed under Oryctolagus cuniculus [3]; 98% in the assay filed under Oryctolagus cuniculus [4]; 15% in the assay listed under Bos taurus [5]; 38% in the assay filed under Bos taurus [6].

Turning to `CC(=O)OCC1=CC2OC1C1C(=O)OC(=O)C21` (centres undefined), the inhibition amounted to 59% in the assay filed under Oryctolagus cuniculus [1]; 92% in the assay listed under Oryctolagus cuniculus [2]; 60% in the assay filed under Oryctolagus cuniculus [3]; 98% in the assay filed under Oryctolagus cuniculus [4]; 25% in the assay filed under Bos taurus [5]; 90% in the assay listed under Bos taurus [6].

Values taken from ChEMBL document CHEMBL1130480, “Structure-activity relationship of cantharidin derivatives to protein phosphatases 1, 2A1, and 2B” (Bioorg Med Chem Lett, 1997).
